Patent US9765075B2, “Substituted bridged urea analogs as sirtuin modulators” (GLAXOSMITHKLINE LLC, priority 2013, dated 2017)
Like-named read-outs stand apart in the source and are kept apart here.

Biological target: T1, SIRT1 (Homo sapiens, UniProt Q96EB6)
T1 sequence (Q96EB6 1-747): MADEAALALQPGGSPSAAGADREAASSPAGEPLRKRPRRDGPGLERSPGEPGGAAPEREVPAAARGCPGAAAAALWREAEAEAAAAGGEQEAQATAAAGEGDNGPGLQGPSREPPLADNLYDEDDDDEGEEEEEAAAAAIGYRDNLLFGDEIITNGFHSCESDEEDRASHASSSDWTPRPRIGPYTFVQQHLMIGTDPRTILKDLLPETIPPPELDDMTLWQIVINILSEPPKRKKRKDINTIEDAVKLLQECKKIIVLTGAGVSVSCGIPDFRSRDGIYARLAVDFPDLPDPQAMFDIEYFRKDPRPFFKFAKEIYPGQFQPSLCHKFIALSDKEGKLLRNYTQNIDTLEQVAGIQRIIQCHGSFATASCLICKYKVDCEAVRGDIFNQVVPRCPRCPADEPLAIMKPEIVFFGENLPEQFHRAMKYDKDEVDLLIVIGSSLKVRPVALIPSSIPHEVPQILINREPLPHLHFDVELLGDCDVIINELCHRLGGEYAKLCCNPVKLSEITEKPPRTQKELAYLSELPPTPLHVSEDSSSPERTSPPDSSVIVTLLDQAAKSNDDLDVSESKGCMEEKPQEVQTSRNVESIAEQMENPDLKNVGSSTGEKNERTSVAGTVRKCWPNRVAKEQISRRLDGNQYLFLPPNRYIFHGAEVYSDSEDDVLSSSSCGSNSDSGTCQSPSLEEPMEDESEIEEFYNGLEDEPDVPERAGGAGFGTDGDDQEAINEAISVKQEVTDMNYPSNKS
Test: Trp mass spectrometry assay (SIRT1 activation)
Format: biochemical
Conditions: for Emax: percent maximum fold activation of SIRT1, read-out: Tryp % Fold Act
In short: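 N-His-tagged SIRT1 (10 nM), expressed in E. coli, was incubated with 0.5 μM Ac-RHKK(Ac)W-NH2 peptide and 120 μM NAD+ for 25 min at 25 °C in HEPES pH 7.5 with […]. The reaction was stopped with formic acid and O-acetyl-ADP-ribose or deacetylated peptide was quantified by mass spectrometry. Results are given as EC1.5 and percent maximal activation relative to DMSO control.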

[1] = concentration of test compound that results in 150% activation of SIRT1, Trp peptide substrate
[2] = Trp mass spectrometry assay, EC1.5 = concentration of test compound that results in 150% activation of SIRT1
[3] = Trp mass spectrometry assay, EC1.5 = concentration giving 150% activation of SIRT1

Row | SMILES | Tryp AVG EC1.5 (μM) [1] | Emax (Trp peptide substrate) | Tryp AVG EC1.5 (μM) [2] | Emax (Trp mass spectrometry assay) | Tryp AVG EC1.5 (μM) [3]
1 | CS(=O)(=O)c1ccc(-c2ccc3c(n2)N(C(=O)Nc2ccccn2)[C@H]2CCN3C2)cc1 [Example 326] | B (EC1.5 1-25 μM) | ≥ 150% |  |  | 
2 | O=C(Nc1ccc(-n2cncn2)cc1)N1c2nc(-c3cccc(C(F)(F)F)c3)ccc2N2CC[C@H]1C2 [Example 580] | A (EC1.5<1 μM) | ≥ 150% |  |  | 
3 | COc1cc(-c2cccc(C(F)(F)F)c2)nc2c1N1CC[C@@H](C1)N2C(=O)Nc1ccncc1 [Example 160] |  |  | A (EC1.5<1 μM) | ≥ 150% | 
4 | CN(C(=O)N1c2nc(-c3cccc(C(F)(F)F)c3)ccc2N2CC[C@H]1C2)c1ccccn1 [Example 200] |  |  | C (EC1.5>25 μM) | < 150% | 
5 | O=C(Nc1ccncn1)N1c2nc(-c3cccc(Cl)c3)ccc2N2CC[C@H]1C2 [Example 110] |  |  | A (EC1.5<1 μM) | ≥ 150% | 
6 | Cn1cc(NC(=O)N2c3nc(-c4cccc(C(F)(F)F)c4)ccc3N3CC[C@H]2C3)cn1 [Example 49] |  |  |  | ≥ 150% | 
7 | COc1cc(NC(=O)N2c3nc(-c4cccc(C(F)(F)F)n4)ccc3N3CC[C@H]2C3)ncn1 [Example 339] | B (EC1.5 1-25 μM) | ≥ 150% |  |  | 
8 | O=C(Nc1cccc(-c2cnco2)c1)N1c2nc(N3CCCC(C(F)(F)F)C3)ccc2N2CC[C@H]1C2 (stereo partly shown) [Example 212] |  |  | A (EC1.5<1 μM) | ≥ 150% | 
9 | COc1cc(NC(=O)N2c3nc(-c4cccc(Cl)c4)ccc3N3CCC2CC3)nc(OC)n1 [Example 523] | A (EC1.5<1 μM) | ≥ 150% |  |  | 
10 | O=C(Nc1cccnn1)N1c2nc(-c3cccc(N4CCOCC4)c3)ccc2N2CCC[C@H]1C2 [Example 539] | B (EC1.5 1-25 μM) | ≥ 150% |  |  | 
11 | O=C(Nc1cccc(-c2cnco2)c1)N1c2nc(-c3cccc(C(F)(F)F)c3)ccc2N2C[C@@H](O)[C@H]1C2 [Example 665] |  |  |  | ≥ 150% | A (EC1.5<1 μM)
12 | N#Cc1cccc(-c2ccc3c(n2)N(C(=O)Nc2cccnc2)[C@H]2CCCN3C2)c1 [Example 350] | A (EC1.5<1 μM) | ≥ 150% |  |  | 
13 | Cn1ncc2cc(NC(=O)N3c4nc(-c5cccc(OC(F)(F)F)c5)ccc4N4CC[C@H]3C4)ccc21 [Example 175] |  |  | A (EC1.5<1 μM) | ≥ 150% | 
14 | O=C(Nc1cccnn1)N1c2nc(-c3cccc(Cl)c3)ccc2N2C[C@@H](O)[C@H]1C2 [Example 682] |  |  |  | ≥ 150% | B (EC1.5 1-25 μM)
15 | O=C(Nc1nccc(N2CCNCC2)n1)N1c2nc(-c3cccc(C(F)(F)F)c3)ccc2N2CC[C@H]1C2 [Example 745] |  |  |  | ≥ 150% | B (EC1.5 1-25 μM)
16 | COc1cccc(-c2ccc3c(n2)N(C(=O)Nc2ccccn2)[C@@H]2CCN3C2)c1 [Example 219] | B (EC1.5 1-25 μM) | ≥ 150% |  |  | 
17 | O=C(Nc1ccncn1)N1c2nc(N3CCCN(CC(F)(F)F)CC3)ccc2N2CCC[C@H]1C2 [Example 491] | A (EC1.5<1 μM) | ≥ 150% |  |  | 
18 | Cc1ccc(-c2ccc3c(n2)N(C(=O)Nc2ccncn2)[C@H]2CCCN3C2)cn1 [Example 479] | B (EC1.5 1-25 μM) | ≥ 150% |  |  | 
19 | Cc1cncc(NC(=O)N2c3nc(-c4cccc(Cl)c4)ccc3N3C[C@@H](O)[C@H]2C3)c1 [Example 676] |  |  |  | ≥ 150% | A (EC1.5<1 μM)
20 | O=C(Nc1ccnc(OCC(O)CO)n1)N1c2nc(-c3cccc(F)c3)ccc2N2CC[C@H]1C2 (stereo partly shown) [Example 65] |  |  |  | ≥ 150% | 
21 | O=C(Nc1cccnn1)N1c2nc(-c3cccc(C(F)(F)F)c3)ccc2N2C[C@@H](O)[C@H]1C2 [Example 631] |  |  |  | ≥ 150% | B (EC1.5 1-25 μM)

Row | SMILES | Tryp AVG EC1.5 (μM) [1] | Emax (Trp peptide substrate) | Tryp AVG EC1.5 (μM) [2] | Emax (Trp mass spectrometry assay) | Tryp AVG EC1.5 (μM) [3]
22 | O=C(Nc1ccncc1F)N1c2nc(-c3cccc(CC(O)CO)c3)ccc2N2CC[C@H]1C2 (stereo partly shown) [Example 357] | B (EC1.5 1-25 μM) | ≥ 150% |  |  | 
23 | O=C(Nc1ccc(F)cn1)N1c2nc(-c3cncc(C(F)(F)F)c3)ccc2N2CC[C@H]1C2 [Example 277] | A (EC1.5<1 μM) | ≥ 150% |  |  | 
24 | O=C(Nc1cnccn1)N1c2nc(-c3cncc(C(F)(F)F)c3)ccc2N2C[C@@H](O)[C@H]1C2 [Example 695] |  |  |  | ≥ 150% | B (EC1.5 1-25 μM)
25 | O=C(Nc1cc(O)ncn1)N1c2nc(N3CCCC(C(F)(F)F)C3)ccc2N2CCC[C@H]1C2 (stereo partly shown) [Example 361] | A (EC1.5<1 μM) | ≥ 150% |  |  | 
26 | COc1cc(NC(=O)N2c3nc(-c4cccc(C(F)(F)F)c4)ccc3N3CCC[C@H]2C3)nc(OC)n1 [Example 31] |  |  |  | ≥ 150% | 
27 | COc1cc(NC(=O)N2c3nc(-c4cncc(Cl)c4)ccc3N3CCC[C@H]2C3)ncn1 [Example 405] | A (EC1.5<1 μM) | ≥ 150% |  |  | 
28 | Cc1cnccc1NC(=O)N1c2nc(-c3cccc(Cl)c3)ccc2N2CC[C@H]1C2 [Example 44] |  |  |  | ≥ 150% | 
29 | O=C(Nc1ccncc1F)N1c2nc(-c3ccnc(C(F)(F)F)c3)ccc2N2CC[C@H]1C2 [Example 151] |  |  | A (EC1.5<1 μM) | ≥ 150% | 
30 | N#Cc1cncc(-c2ccc3c(n2)N(C(=O)Nc2cncc(F)c2)[C@H]2CCCN3C2)c1 [Example 535] | B (EC1.5 1-25 μM) | ≥ 150% |  |  | 
31 | Cc1cc(NC(=O)N2c3nc(-c4cccc(C(F)(F)F)c4)ccc3N3CC[C@H]2C3)cc(Br)n1 [Example 540] | A (EC1.5<1 μM) | ≥ 150% |  |  | 
32 | N=C(N)NCc1ccc(NC(=O)N2c3nc(-c4cccc(C(F)(F)F)c4)ccc3N3CCC[C@H]2C3)cc1 [Example 777] |  |  |  | ≥ 150% | A (EC1.5<1 μM)
33 | O=C(Nc1cccnc1)N1c2nc(-c3cccc(OC(F)(F)F)c3)ccc2N2CC[C@H]1C2 [Example 163] |  |  | A (EC1.5<1 μM) | ≥ 150% | 
34 | CS(=O)(=O)c1cncc(-c2ccc3c(n2)N(C(=O)Nc2ccccn2)[C@H]2CCN3C2)c1 [Example 328] | B (EC1.5 1-25 μM) | ≥ 150% |  |  | 
35 | CC(C)(C)OC(=O)N1CCc2ccc(NC(=O)N3c4nc(-c5cccc(C(F)(F)F)c5)ccc4N4CC[C@H]3C4)cc2C1 [Example 609] | B (EC1.5 1-25 μM) | ≥ 150% |  |  | 
36 | Cc1cncc(-c2ccc3c(n2)N(C(=O)Nc2nc(C)c(C)s2)[C@H]2CCCN3C2)c1 [Example 507] | A (EC1.5<1 μM) | ≥ 150% |  |  | 
37 | Cc1nc(NC(=O)N2c3nc(-c4cccc(C(F)(F)F)c4)ccc3N3CC[C@H]2C3)sc1C [Example 48] |  |  |  | ≥ 150% | 
38 | O=C(Nc1cccc(-c2cnco2)c1)N1c2nc(-c3cccc(C(F)(F)F)c3)ccc2N2CC[C@H]1C2 [68 (1)] |  |  | A (EC1.5<1 μM) | ≥ 150% | 
39 | COc1cc(NC(=O)N2c3nc(-c4ccnc(N5CCC(F)(F)C5)c4)ccc3N3CC[C@H]2C3)ncn1 [Example 390] | B (EC1.5 1-25 μM) | ≥ 150% |  |  | 
40 | O=C(NCCc1ccccc1)N1c2nc(-c3cccc(C(F)(F)F)c3)ccc2N2CC[C@H]1C2 [Example 598] | B (EC1.5 1-25 μM) | ≥ 150% |  |  | 
41 | C#CCOc1cccc(NC(=O)N2c3nc(-c4ccc(C5(C(F)(F)F)N=N5)cc4)ccc3N3CC[C@H]2C3)c1 [Example 802] |  |  |  | ≥ 150% | B (EC1.5 1-25 μM)
42 | O=C(Nc1cccnc1)N1c2nc(-c3cccc(C(F)(F)F)c3)ccc2N2CCC1CC2 [Example 485] | A (EC1.5<1 μM) | ≥ 150% |  |  | 
